Like-named read-outs stand apart in the source and are kept apart here.
Experiments:
GS-7340 Ester Hydrolase = GS-7340 Ester Hydrolase (Homo sapiens, UniProt P10619); format: biochemical
[1] = molecular target: human leukocyte elastase (huLE) (Homo sapiens, UniProt P08246); assay: biochemical; conditions: IC50 (μM) huLE
[2] = molecular target: porcine liver carboxylesterase (PLCE) (Sus scrofa, UniProt Q29550); format: biochemical
[3] = molecular target: T1, recombinant HIV-1 protease (Human immunodeficiency virus type 1 group M subtype B, UniProt P04585); assay: biochemical; conditions: Ki
T1 construct: Enzyme: recombinant HIV-1 protease expressed in E.Coli; purchased Bachem California, Inc. H-9040; host or cells: E. coli

[4] = tested on: wild-type HIV-1 strain IIIB; assay: microbe, parasite or virus in culture; format: cell-based; conditions: Human immunodeficiency virus 1, IIIB
mutant HIV-1 I84V/L90M = assay: Resistance Evaluation, I84V/L90M fold change; format: cell-based; conditions: EC50 of mutant I84V/L90M relative to wild type; class symbols
[5] = tested on: recombinant HIV-1 46I 84A; assay: Cross-Resistance Profile Assay; format: cell-based; conditions: protease mutations 46I 84A
[6] = tested on: recombinant HIV-1 46I 47V 50V; assay: microbe, parasite or virus in culture; format: cell-based; conditions: protease mutations 46I 47V 50V
[7] = tested on: recombinant HIV-1 10R 46I 82T 84V; assay: Cross-Resistance Profile Assay; format: cell-based; conditions: protease mutations 10R 46I 82T 84V
[8] = tested on: recombinant HIV-1 10F 46I 71V 82T 90M; assay: Cross-Resistance Profile Assay; format: cell-based; conditions: protease mutations 10F 46I 71V 82T 90M
[9] = tested on: recombinant HIV-1 10I 48V 71V 82A 90M; assay: microbe, parasite or virus in culture; format: cell-based; conditions: protease mutations 10I 48V 71V 82A 90M
[10] = tested on: recombinant HIV-1 48V 54V 71V 82S; assay: microbe, parasite or virus in culture; format: cell-based; conditions: protease mutations 48V 54V 71V 82S
[11] = tested on: recombinant HIV-1 10I 84V 71V 73S 90M; assay: microbe, parasite or virus in culture; format: cell-based; conditions: protease mutations 10I 84V 71V 73S 90M
[12] = tested on: recombinant HIV-1 strains with resistance mutations in the protease gene; assay: Cross-Resistance Profile Assay, whole panel; format: cell-based; conditions: {}
[13] = tested on: recombinant HIV-1 10I 48V 54V 82A; assay: microbe, parasite or virus in culture; format: cell-based; conditions: protease mutations 10I 48V 54V 82A
[14] = tested on: recombinant HIV-1 30N 50S 82I 88D; assay: microbe, parasite or virus in culture; format: cell-based; conditions: protease mutations 30N 50S 82I 88D
[15] = tested on: recombinant HIV-1 54V 71V 82S; assay: Cross-Resistance Profile Assay; format: cell-based; conditions: protease mutations 54V 71V 82S

Sequence of GS-7340 Ester Hydrolase (P10619 29-480): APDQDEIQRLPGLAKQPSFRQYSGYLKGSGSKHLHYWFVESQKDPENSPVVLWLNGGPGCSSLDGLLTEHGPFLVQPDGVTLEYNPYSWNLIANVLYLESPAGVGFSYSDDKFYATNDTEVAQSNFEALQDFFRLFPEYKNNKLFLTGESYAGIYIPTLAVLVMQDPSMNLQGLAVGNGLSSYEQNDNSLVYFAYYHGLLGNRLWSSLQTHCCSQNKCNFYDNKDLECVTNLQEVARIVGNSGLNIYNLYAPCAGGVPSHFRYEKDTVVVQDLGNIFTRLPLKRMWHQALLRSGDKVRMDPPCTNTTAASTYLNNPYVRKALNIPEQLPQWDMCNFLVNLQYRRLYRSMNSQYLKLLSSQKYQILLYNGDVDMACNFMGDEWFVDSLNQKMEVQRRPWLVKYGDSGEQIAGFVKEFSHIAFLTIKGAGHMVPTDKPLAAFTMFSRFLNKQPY
Sequence of porcine liver carboxylesterase (PLCE) (Q29550 whole entry): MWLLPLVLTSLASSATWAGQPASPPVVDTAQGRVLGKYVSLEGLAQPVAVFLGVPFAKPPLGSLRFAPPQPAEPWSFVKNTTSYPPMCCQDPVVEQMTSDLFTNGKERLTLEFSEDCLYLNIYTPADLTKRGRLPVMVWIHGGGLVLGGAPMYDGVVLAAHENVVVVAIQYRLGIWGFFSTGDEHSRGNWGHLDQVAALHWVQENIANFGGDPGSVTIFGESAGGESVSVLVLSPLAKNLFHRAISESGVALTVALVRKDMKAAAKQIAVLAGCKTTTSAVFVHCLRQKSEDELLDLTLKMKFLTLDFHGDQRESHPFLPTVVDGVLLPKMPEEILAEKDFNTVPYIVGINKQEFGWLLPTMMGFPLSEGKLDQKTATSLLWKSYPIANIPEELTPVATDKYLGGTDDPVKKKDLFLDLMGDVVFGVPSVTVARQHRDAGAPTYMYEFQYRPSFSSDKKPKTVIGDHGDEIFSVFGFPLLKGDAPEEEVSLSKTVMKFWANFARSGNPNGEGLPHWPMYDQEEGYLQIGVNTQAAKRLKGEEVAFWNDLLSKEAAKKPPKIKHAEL
Sequence of human leukocyte elastase (huLE) (P08246 30-267): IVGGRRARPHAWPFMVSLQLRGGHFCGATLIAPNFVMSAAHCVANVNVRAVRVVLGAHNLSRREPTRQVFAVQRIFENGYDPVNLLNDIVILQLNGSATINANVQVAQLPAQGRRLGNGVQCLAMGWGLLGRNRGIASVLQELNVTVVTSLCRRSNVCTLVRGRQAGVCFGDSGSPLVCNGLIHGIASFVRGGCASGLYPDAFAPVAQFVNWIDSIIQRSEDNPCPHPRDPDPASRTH

Compound	EC50 [4] [µM]	I84V/L90M fold change (mutant HIV-1 I84V/L90M)	Fold Change in EC50 Relative to WT HIV-1 [5] [fold]	Fold Change in EC50 Relative to WT HIV-1 [6] [fold]	Fold Change in EC50 Relative to WT HIV-1 [7] [fold]	Fold Change in EC50 Relative to WT HIV-1 [8] [fold]	Fold Change in EC50 Relative to WT HIV-1 [9] [fold]	Fold Change in EC50 Relative to WT HIV-1 [10] [fold]	Total No. of Resistant Viruses [12]	further results
O=c1oc(Cl)c(Cl)c2ccccc12 [3,4-dichloroisocoumarin]	–	–	–	–	–	–	–	–	–	Relative Activity (%) (GS-7340 Ester Hydrolase; 1 µM): 100%; Relative Activity (%) (GS-7340 Ester Hydrolase; 10 µM): 25%; Relative Activity (%) (GS-7340 Ester Hydrolase; 100 µM): 5%; Relative Activity (%) (GS-7340 Ester Hydrolase; 1000 µM): <2%; IC50 [1]: 3 µM; IC50 [2]: 250 µM; IC50 ([2]; read-out: IC50 (μM) PLCE): 250 µM
Cc1cccc(C)c1OCC(=O)N[C@@H](Cc1ccccc1)[C@@H](O)C[C@H](Cc1ccccc1)NC(=O)[C@H](C(C)C)N1CCCNC1=O [Lopinavir, reference compound]	< 0.05	++ (>10 to ≦30)	9	19	11	7.5	4.5	60	6	Ki [3]: 0.01 to 0.1 nM; Fold Change in EC50 Relative to WT HIV-1 [11]: 11 fold
CCC[C@@]1(CCc2ccccc2)CC(O)=C([C@H](CC)c2cccc(NS(=O)(=O)c3ccc(C(F)(F)F)cn3)c2)C(=O)O1 [Tipranavir, reference compound]	0.05 to 0.5	+ (>3 to ≦10)	1	0.5	5	3	0.3	2	1	Fold Change in EC50 Relative to WT HIV-1 [13]: 0.4 fold; Fold Change in EC50 Relative to WT HIV-1 [14]: 0.5 fold; Fold Change in EC50 Relative to WT HIV-1 [15]: 3.5 fold
